Key:
[1] = system: rat cortical neurons; test: Inhibition of toxicity of β-amyloid peptide to rat neuronal cells (alamarBlue); type: cell-based; conditions: 10 to 20 μM β-amyloid peptide, 2-3 days; on average where more than one duplicate experiment; compound concentration not stated
Method: The purpose of this test is to determine the effect of 3-indolyl-5-pyrazolone compounds on the toxicity of β-amyloid peptide to neuronal cells.
Primary rat cortical cultures were established from 18 day rat fetuses. Cortical tissue was dissociated by incubation in a trypsin/EDTA solution (0.05% trypsin+0.53 mM EDTA in HBSS; GIBCO Laboratories, Grand Island, N.Y., USA) for 20 minutes at 37° C. The trypsin was then inactivated by resuspending the cells in serum-containing medium (DMEM/FBS): Dulbecco's Modified Eagles' Medium (DMEM) containing 4.5 g/L glucose, 1 mM sodium pyruvate, 1 mM glutamine, 100 Units/mL penicillin, 100 μg/mL streptomycin, and supplemented with 10% heat-inactivated fetal bovine serum (GIBCO Laboratories, Grand Island, N.Y., USA). Cells were then pelleted by centrifugation and resuspended in a chemically-defined medium (DMEM/B27: DMEM containing B27 supplement; GIBCO Laboratories, Grand Island, N.Y., USA) in place of FBS. Polyethyleneimine (PEI; Sigma Chemical Company, St. Louis, Mo., USA)-coated 6.4 mm (96-well) dishes were timed once with DMEM/FBS, and then seeded at 0.75 to 1.25×10^5 cells per well in 0.1 mL DMEM/B27. Cultures were maintained in a H2 O-saturated incubator with an atmosphere of 90% air/10% CO2 at 37° C. Cell viability was visually assessed by phase contrast microscopy and quantified by measuring the reduction of alamarBlue™ (Alamar biosciences, Inc., Sacramento, Calif., USA) as described below. Serum replacement with B27 supplement yields nearly pure neuronal cultures as judged by immunocytochemistry for glial fibrillary acidic protein and neuron-specific enolase (Brewer, et al.^20)
β-amyloid peptide stock solutions were prepared as 1 mM stocks in sterile, doubly distilled water immediately prior to addition to cultures. Rat cortical neurons were exposed to β-amyloid peptide by removing the culture medium and replacing it with DMEM/N2 (GIBCO Laboratories,Grand Island, N.Y., USA) containing 10 to 20 μM β-amyloid peptide. Human cortical neurons were exposed to test compound plus β-amyloid peptide by removing the culture medium and replacing it with MEM containing 50 μM β-amyloid peptide. Cultures were maintained for 2-3 days before neuronal survival was quantified using alamarBlue™.
The alamarBlue™ assay incorporates a fluorometric/colorimetric metabolic indicator (Alamar Biosciences, Inc. Sacramento, Calif., USA). Viable cells convert alamarBlue™ from an oxidized (non-fluorescent, blue) form to a reduced (fluorescent, red) form. Assays were preformed by replacing the culture media with a 10% alamarBlue™ solution in DMEM (rat cortical cultures) or MEM (human cortical cultures).

[2] = system: β-amyloid peptide production; test: Cellular screen for inhibitors of β-amyloid production (ELISA, 293 751 SWE cells); type: cell-based, human; conditions: 2 h pretreatment + 2 h, normalized for cytotoxicity (MTT), concentration not given
Summary of the method: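 293 751 SWE cells (K293 stably expressing APP751 Swedish mutant) pretreated 2 h with compound, then fresh compound-containing medium for 2 h more at 37 °C. Secreted β-amyloid in conditioned medium quantified by sandwich ELISA (capture 266 anti-Aβ13-28, labelled 6C6 anti-Aβ1-16) against a standard curve as ng/mL; mean ± SD of ≥6 replicates.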

[3] = system: human cortical neurons; test: Inhibition of toxicity of β-amyloid peptide to human neuronal cells (alamarBlue); type: cell-based; conditions: 50 μM β-amyloid peptide, 2-3 days; on average where more than one duplicate experiment; compound concentration not stated
Summary of the method: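 Primary human cortical neurons, cultured in MEM/B27, were exposed to test compound plus 50 μM β-amyloid peptide in MEM for 2-3 days at 37 °C. Neuronal survival was quantified by reduction of 10% alamarBlue in MEM (fluorometric/colorimetric metabolic indicator).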

In the case of `COc1ccc2c(c1)c(CC1=NN(c3cccc(C(F)(F)F)c3)C(=O)C1)c(C)n2C(=O)c1ccc(Cl)cc1` [Example 25, 3-[1-(4-chlorobenzoyl)-5-methoxy-2-methyl-3-indolylmethyl]-1-(3-trifluoromethylphenyl)-5-pyrazolone], the “inhibition of the toxicity of β-amyloid peptide to rat neuronal cells” value [1] is reported as “at least 10%”, the “reduction of β-amyloid peptide production as compared to control” value [2] is reported as “at least 20%” and the “inhibition of the toxicity of β-amyloid peptide to human neuronal cells” value [3] is reported as “at least 25%”.

— patent US5484940A, “Substituted 3-indolyl-5-pyrazolone compounds” (priority 1994, dated 1996)
